{
  "source": "patent US10881110B2",
  "about": "“Herbicidal compositions comprising isoxazolo[5,4-b]pyridines” (BASF SE, priority 2014, dated 2021)",
  "experiment_in_all_cases": "greenhouse post-emergence herbicidal test",
  "key": {"[1]": {"test_system": "MATCH", "format": "in vivo, Matricaria recutita", "set-up": "key to herbicidal activity against MATCH found: rating on a scale from 0 to 100", "conditions": "post emergence", "method_in_brief": "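Each species was sown separately, grown to a height of 1 to 15 cm and then sprayed with water-dispersed components A, B and where relevant C. Growth conditions were 10-25° C or 20-35° C, and percent damage was recorded at 20 days.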"}, "[2]": {"test_system": "POLCO", "format": "in vivo, Polygonum convolvulus", "set-up": "key to herbicidal activity against POLCO found: rating on a scale from 0 to 100", "conditions": "post emergence", "method_in_brief": "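Post-emergence greenhouse test: plants in loamy sand, sprayed at 1–15 cm height with aqueous spray liquor from 10% emulsion concentrates, kept at 10-25 °C or 20-35 °C by species. Damage scored 0–100 (100 = complete destruction), usually 20 days after treatment. Expected additive effect E from Colby: E=X+Y−(X·Y/100).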"}, "[3]": {"test_system": "SORVU", "format": "in vivo", "conditions": "6 days after treatment"}, "[4]": {"conditions": "a.i. g/ha: I.1 20.8, B.79 25, 20 days after treatment"}, "[5]": {"conditions": "a.i. g/ha: I.1 31.25, B.67 125, 20 days after treatment"}, "[6]": {"conditions": "application rate a.i.: I.1 62.5 g/ha, B.84 (paraquat-dichloride) 17.5 g/ha, alone or as mixture (composition 1.84)"}, "[7]": {"conditions": "applied alone at 31.25 g/ha a.i."}, "[8]": {"conditions": "g/ha a.i.: I.1 125, B.63 0.5, mixture 125+0.5"}},
  "note": "Where two headings read alike, the source gives them in different places.",
  "data": [
    {"smiles": "O=C(O)c1cc(C2CC2)nc2onc(C3CC3)c12", "note": "[I.1]", "values": [
      {"measurement": "herbicidal activity against MATCH found", "setting": "[1]; I.1 62.5 g/ha, B.95 2 g/ha a.i.", "result": 65},
      {"measurement": "herbicidal activity against MATCH found", "setting": "[1]; a.i. g/ha: I.1 20.8, B.192 62.5, 20 days after treatment", "result": 60, "unit": "%"},
      {"measurement": "herbicidal activity against MATCH found", "setting": "[1]; [4]", "result": 60, "unit": "%"},
      {"measurement": "herbicidal activity against MATCH found", "setting": "[1]; [5]", "result": 30, "unit": "%"},
      {"measurement": "herbicidal activity against MATCH found", "setting": "[1]; a.i. g/ha: I.1 31.25, B.67 125, 20 days after treatment, sub-table r36-r43", "result": 30, "unit": "%"},
      {"measurement": "herbicidal activity against MATCH found", "setting": "[1]; a.i. g/ha: I.1 31.25, B.69 25, 20 days after treatment", "result": 30, "unit": "%"},
      {"measurement": "herbicidal activity against MATCH found", "setting": "[1]; a.i. g/ha: I.1 62.5, B.191 225, 20 days after treatment", "result": 30, "unit": "%"},
      {"measurement": "herbicidal activity against MATCH found", "setting": "[1]; a.i. g/ha: I.1 62.5, B.67 125, 20 days after treatment", "result": 0, "unit": "%"},
      {"measurement": "herbicidal activity against MATCH found", "setting": "[1]; application rate a.i.: I.1 20.8 g/ha, B.107 (topramezone) 6 g/ha, alone or as mixture (composition 1.107)", "result": 60},
      {"measurement": "herbicidal activity against MATCH found", "setting": "[1]; application rate a.i.: I.1 31.25 g/ha, B.87 (carfentrazone-ethyl) 1.75 g/ha, alone or as mixture (composition 1.87)", "result": 35},
      {"measurement": "herbicidal activity against MATCH found", "setting": "[1]; [6]", "result": 80},
      {"measurement": "herbicidal activity against MATCH found", "setting": "[1]; application rate a.i.: I.1 62.5 g/ha, B.87 (carfentrazone-ethyl) 1.75 g/ha, alone or as mixture (composition 1.87)", "result": 80},
      {"measurement": "herbicidal activity against MATCH found", "setting": "[1]; [7]", "result": 25},
      {"measurement": "herbicidal activity against MATCH found", "setting": "[1]; g/ha a.i.: I.1 31.25, B.24 2, mixture 31.25+2", "result": 25},
      {"measurement": "herbicidal activity against MATCH found", "setting": "[1]; g/ha a.i.: I.1 125, B.24 2, mixture 125+2", "result": 75},
      {"measurement": "herbicidal activity against MATCH found", "setting": "[1]; [8]", "result": 75},
      {"measurement": "pest or weed control at 31.25 g/ha", "setting": "[2]; Fallopia convolvulus, post-emergence, 480 h, I.1 alone 31.25 g/ha a.i., read-out: herbicidal activity against POLCO found", "result": 0, "unit": "%"},
      {"measurement": "pest or weed control at 62.5 g/ha", "setting": "[2]; Fallopia convolvulus, post-emergence, 480 h, I.1 alone 62.5 g/ha a.i., read-out: herbicidal activity against POLCO found", "result": 65, "unit": "%"},
      {"measurement": "pest or weed control at 125 g/ha", "setting": "[2]; Fallopia convolvulus, post-emergence, 480 h, I.1 alone 125 g/ha a.i., read-out: herbicidal activity against POLCO found", "result": 65, "unit": "%"},
      {"measurement": "pest or weed control at 31.25 g/ha", "setting": "[2]; Fallopia convolvulus, post-emergence, 480 h, I.1 31.25 g/ha a.i., read-out: herbicidal activity against POLCO found", "result": 20, "unit": "%"},
      {"measurement": "pest or weed control at 31.25 g/ha", "setting": "[2]; Fallopia convolvulus, post-emergence, 480 h, single active, 31.25 g/ha a.i., read-out: herbicidal activity against POLCO found", "result": 20, "unit": "%"},
      {"measurement": "herbicidal activity against POLCO found", "setting": "[2]; 6 days after treatment, g/ha a.i.: I.1 31.25, B.96 70, mixture 31.25+70", "result": 35},
      {"measurement": "herbicidal activity against POLCO found", "setting": "[2]; 6 days after treatment, g/ha a.i.: I.1 31.25, B.96 140, mixture 31.25+140", "result": 35},
      {"measurement": "herbicidal activity against POLCO found", "setting": "[2]; 6 days after treatment, g/ha a.i.: I.1 31.25, naptalam 50, mixture 31.25+50", "result": 35},
      {"measurement": "herbicidal activity against POLCO found", "setting": "[2]; 6 days after treatment, g/ha a.i.: I.1 62.5, B.96 70, mixture 62.5+70", "result": 70},
      {"measurement": "herbicidal activity against POLCO found", "setting": "[2]; 6 days after treatment, g/ha a.i.: I.1 62.5, B.96 140, mixture 62.5+140", "result": 70},
      {"measurement": "herbicidal activity against POLCO found", "setting": "[2]; 6 days after treatment, g/ha a.i.: I.1 62.5, naptalam 50, mixture 62.5+50", "result": 70},
      {"measurement": "herbicidal activity against POLCO found", "setting": "[2]; I.1 15.6 g/ha, B.103 7.5 g/ha a.i.", "result": 10},
      {"measurement": "herbicidal activity against POLCO found", "setting": "[2]; I.1 15.62 g/ha, B.167 62.5 g/ha a.i.", "result": 10},
      {"measurement": "herbicidal activity against POLCO found", "setting": "[2]; I.1 15.62 g/ha, B.167 125 g/ha a.i.", "result": 10},
      {"measurement": "herbicidal activity against POLCO found", "setting": "[2]; I.1 15.62 g/ha, B.89 12.5 g/ha a.i.", "result": 0},
      {"measurement": "herbicidal activity against POLCO found", "setting": "[2]; I.1 62.5 g/ha, B.103 7.5 g/ha a.i.", "result": 40},
      {"measurement": "herbicidal activity against POLCO found", "setting": "[2]; I.1 62.5 g/ha, B.103 15 g/ha a.i.", "result": 40},
      {"measurement": "herbicidal activity against POLCO found", "setting": "[2]; I.1 62.5 g/ha, B.167 62.5 g/ha a.i.", "result": 40},
      {"measurement": "herbicidal activity against POLCO found", "setting": "[2]; I.1 62.5 g/ha, B.167 125 g/ha a.i.", "result": 40},
      {"measurement": "herbicidal activity against POLCO found", "setting": "[2]; a.i. g/ha: I.1 15.6, B.190 62.5, 20 days after treatment", "result": 30, "unit": "%"},
      {"measurement": "herbicidal activity against POLCO found", "setting": "[2]; a.i. g/ha: I.1 15.6, B.67 125, 20 days after treatment", "result": 0, "unit": "%"},
      {"measurement": "herbicidal activity against POLCO found", "setting": "[2]; a.i. g/ha: I.1 20.8, B.67 62.5, 20 days after treatment", "result": 30, "unit": "%"},
      {"measurement": "herbicidal activity against POLCO found", "setting": "[2]; [4]", "result": 50, "unit": "%"},
      {"measurement": "herbicidal activity against POLCO found", "setting": "[2]; a.i. g/ha: I.1 31.25, B.190 62.5, 20 days after treatment", "result": 50, "unit": "%"},
      {"measurement": "herbicidal activity against POLCO found", "setting": "[2]; [5]", "result": 0, "unit": "%"},
      {"measurement": "herbicidal activity against POLCO found", "setting": "[2]; a.i. g/ha: I.1 31.25, bentazon Na 125, 20 days after treatment", "result": 50, "unit": "%"},
      {"measurement": "herbicidal activity against POLCO found", "setting": "[2]; a.i. g/ha: I.1 62.5, B.67 62.5, 20 days after treatment", "result": 65, "unit": "%"},
      {"measurement": "herbicidal activity against POLCO found", "setting": "[2]; a.i. g/ha: I.1 62.5, B.79 25, 20 days after treatment", "result": 75, "unit": "%"},
      {"measurement": "herbicidal activity against POLCO found", "setting": "[2]; application rate a.i.: I.1 31.25 g/ha, B.100 (isoxaflutole) 12.5 g/ha, alone or as mixture (composition 1.100)", "result": 70},
      {"measurement": "herbicidal activity against POLCO found", "setting": "[2]; application rate a.i.: I.1 31.25 g/ha, B.139 (pyroxasulfone) 12.5 g/ha, alone or as mixture (composition 1.139)", "result": 65},
      {"measurement": "herbicidal activity against POLCO found", "setting": "[2]; application rate a.i.: I.1 31.25 g/ha, B.40 (imazethapyr) 7.5 g/ha, alone or as mixture (composition 1.40)", "result": 20},
      {"measurement": "herbicidal activity against POLCO found", "setting": "[2]; application rate a.i.: I.1 62.5 g/ha, B.107 (topramezone) 6 g/ha, alone or as mixture (composition 1.107)", "result": 75},
      {"measurement": "herbicidal activity against POLCO found", "setting": "[2]; [6]", "result": 90},
      {"measurement": "herbicidal activity against POLCO found", "setting": "[2]; [7]", "result": 65},
      {"measurement": "herbicidal activity against POLCO found", "setting": "[2]; applied alone at 62.5 g/ha a.i.", "result": 90},
      {"measurement": "herbicidal activity against POLCO found", "setting": "[2]; applied alone at 125 g/ha a.i.", "result": 85},
      {"measurement": "herbicidal activity against POLCO found", "setting": "[2]; g/ha a.i.: I.1 31.25, B.63 1, mixture 31.25+1", "result": 30},
      {"measurement": "herbicidal activity against POLCO found", "setting": "[2]; [8]", "result": 80},
      {"measurement": "herbicidal activity against POLCO found", "setting": "[2]; g/ha a.i.: I.1 125, B.63 1, mixture 125+1", "result": 80},
      {"measurement": "herbicidal activity against SORVU found", "setting": "[3]; g/ha a.i.: I.1 31.25, B.96 140, mixture 31.25+140", "result": 0},
      {"measurement": "herbicidal activity against SORVU found", "setting": "[3]; g/ha a.i.: I.1 62.5, naptalam 200, mixture 62.5+200", "result": 20}
    ]}
  ]
}
